In patent US9145415B2, “Nitrogen-containing heterocyclic compound or salt thereof” (FUJIFILM Corporation, priority 2012, dated 2015):
Read-outs that look alike come from different tables or passages of the source.

Tests used:
[1] = molecular target: T1, human FLT3 protein (FLT3 (WT)) (Homo sapiens, UniProt P36888); experiment: FLT3 inhibition test (FLT3 enzyme inhibition, time-resolved fluorescence of substrate peptide phosphorylation); type: biochemical; conditions: GST-fused human FLT3 (564 to 993 aa), ATP 50 μM; read-out: FLT3 (WT) enzyme inhibition activity
T1 construct: human FLT3 protein (intracellular region, 564 to 993 aa); GST; purchased Carna Biosciences; host or cells: baculovirus expression system
T1 sequence (P36888 564-993): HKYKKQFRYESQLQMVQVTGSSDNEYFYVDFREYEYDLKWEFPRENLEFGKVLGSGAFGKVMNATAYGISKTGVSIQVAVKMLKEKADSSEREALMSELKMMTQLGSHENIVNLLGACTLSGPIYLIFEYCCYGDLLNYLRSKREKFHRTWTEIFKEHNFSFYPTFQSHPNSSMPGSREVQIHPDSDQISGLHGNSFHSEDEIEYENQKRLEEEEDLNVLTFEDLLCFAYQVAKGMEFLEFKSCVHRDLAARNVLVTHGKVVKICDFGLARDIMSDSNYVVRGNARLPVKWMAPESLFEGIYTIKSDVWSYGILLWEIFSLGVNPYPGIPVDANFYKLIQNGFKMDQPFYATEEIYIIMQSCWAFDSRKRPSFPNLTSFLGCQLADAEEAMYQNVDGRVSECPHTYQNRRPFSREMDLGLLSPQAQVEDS
Procedure: The FLT3 inhibition test was performed for the compounds of the present invention by the method described below.
A reaction mixture in a volume of 9 μL containing the FLT3 protein and a test compound of a predetermined concentration (1.2 μg of FLT3, 100 mM HEPES, 10 mM MgCl2, 25 mM NaCl, 0.01% BSA, 1 mM DTT, pH 7.5) was left standing at 25° C. for 15 minutes. […] (Toray Industries), and 3 μL (final concentration 50 μM) of ATP (Sigma-Aldrich) were added to the reaction mixture, and the mixture was shaken for 2 minutes, and then further left standing at 25° C. for 30 minutes to allow the enzymatic reaction.

MV4-11 cells = experiment: Leukemia cell proliferation inhibition test (ATPlite), MV4-11; type: cell-based; conditions: Homo sapiens, MV4-11, 72 hours culture, ATPlite, GI50 per method, read-out: MV4-11 cell proliferation inhibition effect
Procedure: (§1) A leukemia cell proliferation inhibition test was performed for the compounds of the present invention by using the leukemia cell strains MV4-11 (ATCC Number, CRL-9591) and Molm-13 (DSMZ Number, ACC554).
(§2) The leukemia cell proliferation inhibition test was performed by the method described below.
(§3) For the purpose of measuring proliferation inhibition attained with a compound, the total cell count was quantified on the basis of the total cellular ATP concentration using the ATPlite (PerkinElmer) reagent utilizing firefly luciferase. The Molm-13 or MV4-11 cells were added to the RPMI medium containing penicillin and streptomycin (penn/strep) and 10% FBS at a density of 2×10^5 cells/ml, and 50 μL (10,000 cells) of the cell suspension was inoculated to each well of a 96-well plate (Corning).
(§4) A serially diluted solution of a compound or 0.1% DMSO (solvent control) in a volume of 50 μL was added to the cells, and then the cells were cultured for 72 hours under the standard cell proliferation conditions (37° C., 5% CO2) to allow proliferation of the cells. In order to measure the proliferation of the total cells, equal volume of the ATPlite reaction mixture was added to each well in accordance with the instructions attached to ATPlite, and then luminescence count of the well was measured (relative light unit, RLU).
(§5) The RLU signal observed with the DMSO solvent control after 72 hours of the culture was defined as a signal indicating 0% inhibition, and the GI50 value for the proliferation inhibition corresponds to a concentration of a compound that provides 50% inhibition based on the proliferation of the total cells contained in the DMSO solvent control. Each data point was obtained from samples in duplicate. The GI50 values were calculated by the non-linear regression fitting (Fit Model (205)) according to a sigmoid dose-reaction equation using the XLfit software.

Molm-13 cells = experiment: Leukemia cell proliferation inhibition test (ATPlite), Molm-13; type: cell-based; conditions: Homo sapiens, Molm-13, 72 hours culture, ATPlite, GI50 per method, read-out: MOLM13 cell proliferation inhibition effect
Procedure: as §1, §2, §3, §4, §5

Row | SMILES | IC50 [1] | IC50 (MV4-11 cells; MV4-11, 72 h) | IC50 (Molm-13 cells; MOLM-13, 72 h) | IC50 (MV4-11 cells) | IC50 (Molm-13 cells)
1 | C/C=C/C(=O)N(C)[C@@H](C)C(=O)Nc1cccc(NC(=O)c2cnc(Nc3ccc(C(N)=O)cc3)nc2NCCC)c1 [Compound 3-9] | < 10 nM | 10 to 100 nM | 10 to 100 nM |  | 
2 | CCCNc1nc(Nc2cccc(F)c2)ncc1C#CC(C)(C)CCNC(=O)[C@H](C)N(C)C(=O)/C=C/CN(C)C [Compound 7-28] | < 10 nM | < 10 nM | < 10 nM |  | 
3 | CNc1nc(Nc2cccc(F)c2)ncc1C#CCCCNC(=O)[C@@H]1C[C@H](O)CN1C(=O)/C=C/CN(C)C [Compound 7-74] | < 10 nM | < 10 nM | < 10 nM |  | 
4 | CCCNc1nc(Nc2ccc(C(N)=O)cc2)ncc1C(=O)Nc1cccc(NC(CNC(=O)/C=C/CN(C)C)C(F)(F)F)c1 (stereo not shown) [Compound 3-17] | < 10 nM | 100 to 1000 nM | > 1000 nM |  | 
5 | C=CC(=O)NCC(=O)Nc1cccc(NC(=O)c2cnc(NCCc3ccncc3)nc2NCCC)c1 [Compound 2-1, N-(3-(2-(acrylylamido)acetamido)phenyl)-4-(propylamino)-2-((2-(pyridin-4-yl)ethyl)amino)pyrimidine-5-carboxamide] | < 10 nM |  |  | 10 to 100 nM | 10 to 100 nM
6 | C=CC(=O)NCC(=O)Nc1cccc(NC(=O)c2cnc(Nc3ccc(C(N)=O)cc3)nc2NCCC)c1 [Compound 3-8] | < 10 nM | 10 to 100 nM | 10 to 100 nM |  | 
7 | CCCNc1nc(Nc2ccc(OC)c(F)c2)ncc1C#CCCCNC(=O)[C@H](C)N(C)C(=O)/C=C/CN(C)C [Compound 7-20, (S,E)-4-(Dimethylamino)-N-(1-((5-(2-((3-fluoro-4-methoxyphenyl)amino)-4-(propylamino)pyrimidin-5-yl)-4-pentyn-1-yl)amino)-1-oxopropan-2-yl)-N-methyl-2-butenamide] | < 10 nM | < 10 nM | < 10 nM |  | 
8 | CNc1nc(Nc2ccc(F)cc2)ncc1C#CCCCNC(=O)[C@@H]1CCN1C(=O)/C=C/CN(C)C [Compound 7-86, (S,E)-1-(4-(Dimethylamino)-2-butenoyl)-N-(5-(2-((4-fluorophenyl)amino)-4-(methylamino)pyrimidin-5-yl)-4-pentyn-1-yl)azetidine-2-carboxamide] | < 10 nM | < 10 nM | < 10 nM |  | 
9 | CCCNc1nc(Nc2ccc(C(N)=O)cc2)ncc1C(=O)Nc1cccc(NC(=O)[C@H](C)N(C)C(=O)/C=C/CN(C(C)C)C(C)C)c1 [Compound 4-7] | < 10 nM | < 10 nM | < 10 nM |  | 
10 | CCCNc1nc(Nc2ccc(C(N)=O)cc2)ncc1C(=O)Nc1cccc(NC(=O)[C@H](C)N(C)C(=O)/C=C/CNC)c1 [Compound 4-2] | < 10 nM | < 10 nM | < 10 nM |  | 
11 | CCCNc1nc(Nc2ccc(C#N)cc2)ncc1C#CCCCNC(=O)[C@H]([C@@H](C)O)N(C)C(=O)/C=C/CN(C)C [Compound 7-63] | < 10 nM | < 10 nM | < 10 nM |  | 
12 | CCCNc1nc(Nc2ccc(C#N)cc2)ncc1C#CCCCNC(=O)[C@@H](C)N(C)C(=O)/C=C/CN(C)C [Compound 7-32] |  | < 10 nM | < 10 nM |  | 
13 | CCCNc1nc(Nc2ccc(C#N)cc2)ncc1C#CCCCNC(=O)[C@H](C)N(C)C(=O)/C=C/CN(C)C [Compound 7-5, (S,E)-N-(1-((5-(2-((4-Cyanophenyl)amino)-4-(propylamino)pyrimidin-5-yl)-4-pentyn-1-yl)amino)-1-oxopropan-2-yl)-4-(dimethylamino)-N-methyl-2-butenamide] |  | < 10 nM | < 10 nM |  | 
14 | CCCNc1nc(Nc2ccc(C(N)=O)cc2)ncc1C(=O)NCCCNC1CCCC[C@@H]1NC(=O)/C=C/CN(C)C (stereo partly shown) [Compound 3-25] |  | 10 to 100 nM | 100 to 1000 nM |  | 
15 | CCCNc1nc(Nc2ccc(C(N)=O)cc2)ncc1C(=O)NCCCN[C@@H]1CCCC[C@@H]1NC(=O)/C=C/CN(C)C [Compound 3-25] | < 10 nM |  |  |  | 

The next lines start with results.

Row | IC50 [1] | IC50 (MV4-11 cells; MV4-11, 72 h) | IC50 (Molm-13 cells; MOLM-13, 72 h) | SMILES | IC50 (MV4-11 cells) | IC50 (Molm-13 cells)
16 | < 10 nM | < 10 nM | < 10 nM | CCCNc1nc(Nc2cccc(F)c2)ncc1C#C[C@@H]1CC[C@H](NC(=O)[C@H](C)N(C)C(=O)/C=C/CN(C)C)C1 [Compound 13-10] |  | 
17 | < 10 nM | < 10 nM | < 10 nM | CCCNc1nc(Nc2ccc3c(cnn3C)c2)ncc1C#CCCCNC(=O)[C@H](C)N(C)C(=O)/C=C/CN(C)C [Compound 21-6] |  | 
18 | 100 to 1000 nM | > 1000 nM | 100 to 1000 nM | CCCNc1nc(Nc2cccc3c2cnn3C)ncc1C#CCCCNC(=O)[C@H](C)N(C)C(=O)/C=C/CN(C)C [Compound 21-5] |  | 
19 | < 10 nM | < 10 nM | < 10 nM | C[C@@H](C(=O)N[C@H]1C[C@@H](C#Cc2cnc(Nc3ccc(C#N)cc3)nc2NC2CC2)C1)N(C)C(=O)/C=C/CN(C)C (relative stereo) [Compound 15-8, (E)-N—((S)-1-(((1S*,3R*)-3-((2-((4-Cyanophenyl)amino)-4-(cyclopropylamino)pyrimidin-5-yl)ethynyl)cyclobutyl)amino)-1-oxopropan-2-yl)-4-(dimethylamino)-N-methyl-2-butenamide] |  | 
20 | < 10 nM | < 10 nM | < 10 nM | CNc1nc(Nc2ccc3cn[nH]c3c2)ncc1C#CCCCNC(=O)[C@H](C)N(C)C(=O)/C=C/CN(C)C [Compound 10-63] |  | 
21 | < 10 nM | < 10 nM | < 10 nM | CCCN(CCC)c1nc(Nc2ccc(F)cc2)ncc1C#CCCCNC(=O)CN(C)C(=O)/C=C/CN(C)C [Compound 10-22] |  | 
22 | < 10 nM | < 10 nM | 10 to 100 nM | COCCCNc1nc(Nc2ccc(F)cc2)ncc1C#CCCCNC(=O)[C@H](C)N(C)C(=O)/C=C/CN(C)C [Compound 10-26] |  | 
23 | < 10 nM | < 10 nM | < 10 nM | Cc1ccc(Nc2nc(Nc3ccc(C#N)cc3)ncc2C#CCCCNC(=O)[C@H](C)N(C)C(=O)/C=C/CN(C)C)cc1 [Compound 10-23] |  | 
24 | < 10 nM | < 10 nM | < 10 nM | CNc1nc(Nc2ccc3cn[nH]c3c2)ncc1C#CCCCNC(=O)[C@@H]1CCCN1C(=O)/C=C/CN(C)C [Compound 10-69] |  | 
25 | < 10 nM | < 10 nM | < 10 nM | COc1nc(Nc2cccc(F)c2)ncc1C#C[C@@H]1CCC[C@H](NC(=O)[C@H](C)N(C)C(=O)/C=C/CN(C)C)C1 [Compound 15-4] |  | 
26 | < 10 nM | < 10 nM | < 10 nM | C[C@@H](C(=O)NCCCC#Cc1cnc(Nc2ccc(C#N)cc2)nc1N1CCC1)N(C)C(=O)/C=C/CN(C)C [Compound 10-14] |  | 
27 | < 10 nM | 10 to 100 nM | 10 to 100 nM | CNc1nc(Nc2cccc(F)c2)ncc1C#Cc1cccc(NC(=O)CN(C)C(=O)/C=C/CN(C)C)c1 [Compound 8-23] |  | 
28 | < 10 nM | < 10 nM | < 10 nM | C[C@@H](C(=O)NCCCC#Cc1cnc(Nc2ccc3c(cnn3C)c2)nc1NC1CC1)N(C)C(=O)/C=C/CN(C)C [Compound 10-54] |  | 
29 | < 10 nM | < 10 nM | < 10 nM | CNc1nc(Nc2ccc(C#N)cc2)ncc1C#C[C@H]1C[C@@H](NC(=O)[C@H](C)N(C)C(=O)/C=C/CN(C)C)C1 [Compound 13-14, (E)-N—((S)-1-(((1S,3R)-3-((2-((4-Cyanophenyl)amino)-4-(methylamino)pyrimidin-5-yl)ethynyl)cyclobutyl)amino)-1-oxopropan-2-yl)-4-(dimethylamino)-N-methyl-2-butenamide] |  | 
